According to patent publication US9326972B2, “Use of phenylmethimazoles, methimazole derivatives, and tautomeric cyclic thiones for the treatment of autoimmune/inflammatory diseases associated with toll-like receptor overexpression” (Ohio University, priority 2004, dated 2016):
Like-named read-outs stand apart in the source and are kept apart here.

Columns and labels:
FRTL-5 cells = test: Effect of 2-aminopurine (PKR inhibitor) in dsRNA-transfected FRTL-5 cells; type: cell-based, rat; conditions: FRTL-5, 10 mM 2-AP
Experimental: FIG. 2. […] After total RNA purification, 20 μg of total RNA were analyzed with indicated radiolabeled cDNA probes. […] Cells were transfected Lipofectamine 2000 alone (L) or with the indicated amount of Poly (I:C) (RNA) or endotoxin-free E. coli DNA. After 12 and 24 hours, 20 μg of total RNA was analyzed with the indicated radiolabeled cDNA probes. […] In (C), the effect of 2-aminopurine (a PKR inhibitor) on transfected dsRNA-induced TLR3 mRNA levels was measured. Again cells were transfected with Lipofectamine 2000 alone or Lipofectamine with the indicated amount of Poly (I:C) or endotoxin-free E. coli DNA in the presence or absence of 10 mM 2-aminopurine. After the indicated incubation time, cells were harvested and 20 μg of total RNA was analyzed with the indicated radiolabeled cDNA probes. […] Data are representative of multiple experiments. In sum, dsRNA transfection is needed to increase gene expression of signals implicated in autoimmune-inflammatory diseases such as MHC genes and high levels of Type I interferons, not simply activation of TLR by incubating thyrocytes with dsRNA by dsRNA binding to TLR3 receptors. Moreover, despite increased PKR, the critical signal involved in TLR3/Type I IFN signaling by dsRNA transfection is not PKR mediated. […]

C57BL/6J mice = test: LPS-induced endotoxic shock in C57BL/6J mice: survival and signs of shock; type: in vivo, mouse; conditions: for Signs of shock at 12 hours, % of Animals: LPS-challenged mice
[1] = test system: TLR3, MHC Class I, PKR, IP-10 mRNA in FRTL-5 cells; conditions: FRTL-5, 100 U/ml IFN
ERK1/2 MAPK, ELK1 = test: ERK1/2 MAPK phosphorylation and Elk1 transactivation in FRTL-5 thyrocytes; type: cell-based, rat; conditions: FRTL-5, pCMV-BD-Elk 1 and pFR-luc, 6 hrs
Experimental: Poly (I:C) (the dsRNA ligand commonly used as a test compound) activates the TLR3 mediated NF-κ β/Map kinase signal pathway in FRTL-5 thyrocytes. FRTL-5 cells were transiently transfected with 100 ng of luciferase reporter pNF-κB Luc and 2 ng of internal control phRL-Tk. After 36 h, cells were incubated with 100 μg/ml poly (I:C) or endotoxin-free E. coli DNA for 6 h. Measurements were made with the Dual Luciferase Assay System (Promega). Poly (I:C) increased TLR3 mediated NF-κB mediated luciferase activity (gene expression) 6 fold; dsDNA had no effect. Further support came from electrophoretic mobility shift analyses (EMSA). When FRTL-5 thyrocytes were incubated with 100 μg/ml poly (I:C), IL-1β, TNF-α or TPA, cells lysed after 1 h, and nuclear translocation of NF-κB measured. The poly (I:C) induced p50/p65 complex formation as measured by the presence of a specific new protein/DNA complex and its inhibition by anti-p50 and p65 antibodies, but not by anti-p52, c-rel and Rel B antibodies; the complex was also supershifted by anti-p50. […] Additionally, when FRTL-5 cells were co-transfected with pCMV-BD-Elk 1 and pFR-luc, then incubated with 100 μg/ml poly (I:C) or IL-1β for 6 hrs, ELK1 transactivation was increased 2-fold by both Poly (I:C) and IL-1β when measured with the Dual Luciferase Assay System (Promega). […]

NF-κB = NF-κB Luc reporter gene in FRTL-5 thyrocytes; type: cell-based, rat; conditions: FRTL-5, pNF-κB Luc, 100 μg/ml, 6 h
Experimental: Poly (I:C) (the dsRNA ligand commonly used as a test compound) activates the TLR3 mediated NF-κ β/Map kinase signal pathway in FRTL-5 thyrocytes. FRTL-5 cells were transiently transfected with 100 ng of luciferase reporter pNF-κB Luc and 2 ng of internal control phRL-Tk. After 36 h, cells were incubated with 100 μg/ml poly (I:C) or endotoxin-free E. coli DNA for 6 h. Measurements were made with the Dual Luciferase Assay System (Promega). Poly (I:C) increased TLR3 mediated NF-κB mediated luciferase activity (gene expression) 6 fold; dsDNA had no effect. Further support came from electrophoretic mobility shift analyses (EMSA). When FRTL-5 thyrocytes were incubated with 100 μg/ml poly (I:C), IL-1β, TNF-α or TPA, cells lysed after 1 h, and nuclear translocation of NF-κB measured. The poly (I:C) induced p50/p65 complex formation as measured by the presence of a specific new protein/DNA complex and its inhibition by anti-p50 and p65 antibodies, but not by anti-p52, c-rel and Rel B antibodies; the complex was also supershifted by anti-p50. […] Additionally, when FRTL-5 cells were co-transfected with pCMV-BD-Elk 1 and pFR-luc, then incubated with 100 μg/ml poly (I:C) or IL-1β for 6 hrs, ELK1 transactivation was increased 2-fold by both Poly (I:C) and IL-1β when measured with the Dual Luciferase Assay System (Promega). NF-κB/MAP Kinase signals evoked by TLR3 binding dsRNA are only one portion of TLR3 functional expression.
Cells were co-transfected with ISRE-Luc and pRLTk-Int and then treated without (none) or with Poly I:C (100 μg/ml), LPS (100 ng/ml), IL-1β (10 ng/ml) TNF-α (25 ng/ml), IFN-β (100 U/ml) or IFN-γ (1000 U/ml) in the presence of DMSO (−) or C10 for 6 hours. Data were obtained using the Dual Luciferase Assay system. The effect on the ISRE element is not duplicated by an NF-κB reporter plasmid despite the similarity of the two elements: ([…])5 (SEQ ID NO:3) vs. ([…])5 (SEQ ID NO:4), respectively. Data are representative of multiple experiments.
Plasmids for Reporter Gene Assays. Human IRF-3 was amplified from human cDNA and cloned into pCR 2.1 by the TOPO/TA (Invitrogen, Carlsbad, Calif.) cloning method, and then sequenced. IRF-3 was then excised by EcoRI digestion and subcloned into pCMV-BD (Stratagene, La Jolla, Calif.) for use in transactivation assays. To construct IFN-β-luc the human IFN-β promoter sequence was amplified from human genomic DNA (Clontech, Palo Alto, Calif.)) using Ex Taq™ Polymerase (Takara, Madison, Wis.). The PCR fragment contained human IFN-β promoter sequence from −125 to +34 relative to the transcription start site (+1) and incorporated KpnI and XhoI restriction sites at the 5′ and 3′ ends, respectively. The primers were as follows: hIFN-β (−125) KpnI (5′-[…]-3′) (SEQ ID NO:9) and hIFN-β (+34) XhoI (5′-[…]-3′). (SEQ ID NO: 10) The fragment was digested with KpnI and XhoI then ligated into a similarly digested pGL3 Basic (Promega, Madison, Wis.) vector. The human MyD88 wild and dominant negative expression vectors were kindly donated by Dr. P. E. Auron. pFR-luc (5×Gal4 DNA binding domains and minimal TATA box), ISRE-Luc, NF-κB-luc and the Elk1 trans-Reporting System were purchased from Stratagene. pRL TK-Int was purchased from Promega.
Transient Expression Analysis. A DEAE procedure was used to transfect promoter-luciferase gene constructs and expression plasmids into FRTL-5 cells. Briefly, FRTL-5 cells were grown in 24-well plates to about 70% confluence, washed with 0.5 ml of serum-free culture medium (6H0 medium), then exposed to 125 μl of premade plasmid-DEAE mixture per well for 15 min at room temperature. The plasmid-DEAE mixture was prepared by incubating 100 ng of plasmid DNA, unless otherwise noted in individual experiments, with 3.125 μl of DEAE-Dextran (10 mg/ml) (Promega, Madison Wis.). FRTL-5 cells were incubated with this mixture for 2 hr at 37° C. in a CO2 incubator, before 2 ml of 6H5 medium was added. […]

[2] = LPS 20 mg/kg i/p, drug i/p 30 min before LPS, 8 mice per group
[3] = challenged with LPS first, treated after 12 hours when shock had appeared

For `Nc1ncc2[nH]cnc2n1` [Compound 2-AP, 2-aminopurine], the “dsRNA-transfection-increased NF-κB p65/p50 complex formation (EMSA)” value (FRTL-5 cells) was “strongly inhibited” and the “dsRNA-transfection-induced increase in IFN-β mRNA levels” value (FRTL-5 cells) was “did not inhibit”.
With `CNC[C@H](O)[C@@H](O)[C@H](O)[C@H](O)CO.Cc1c(Nc2ncccc2C(=O)O)cccc1C(F)(F)F` [flunixin of meglumine] the “Number of surviving mice, 1 week” value (C57BL/6J mice; [2]) was 0, the “Number of surviving mice, 6 hrs” value (C57BL/6J mice; [2]) was 8 and the “Number of surviving mice, 12 hrs” value (C57BL/6J mice; [2]) was 8. For the same compound, the “Number of surviving mice, 18 hrs” value (C57BL/6J mice; [2]) was 4, the “Number of surviving mice, 36 hrs” value (C57BL/6J mice; [2]) was 0 and the “Signs of shock at 12 hours, % of Animals” value (C57BL/6J mice) was 100 % of Animals. The “Number of surviving mice, 1 week” value (C57BL/6J mice; [3]) was 0, the “Number of surviving mice, 18 hrs” value (C57BL/6J mice; [3]) was 0 and the “Number of surviving mice, 36 hrs” value (C57BL/6J mice; [3]) was 0.
With `C[C@]12C=CC(=O)C=C1CC[C@@H]1[C@@H]2[C@@H](O)C[C@@]2(C)[C@H]1CC[C@]2(O)C(=O)CO` [prednisolone] the “Number of surviving mice, 1 week” value (C57BL/6J mice; [2]) was 0, the “Number of surviving mice, 6 hrs” value (C57BL/6J mice; [2]) was 8 and the “Number of surviving mice, 12 hrs” value (C57BL/6J mice; [2]) was 8. For the same compound, the “Number of surviving mice, 18 hrs” value (C57BL/6J mice; [2]) was 3, the “Number of surviving mice, 36 hrs” value (C57BL/6J mice; [2]) was 0 and the “Signs of shock at 12 hours, % of Animals” value (C57BL/6J mice) was 100 % of Animals. The “Number of surviving mice, 1 week” value (C57BL/6J mice; [3]) was 0, the “Number of surviving mice, 18 hrs” value (C57BL/6J mice; [3]) was 1 and the “Number of surviving mice, 36 hrs” value (C57BL/6J mice; [3]) was 0.
With “IFN-γ: a Type II IFN, from Biosource International” the “GAPDH mRNA, % of Control at 0 Time (±15%)” value (“GAPDH mRNA, % of Control” below) ([1]; 1 hr) was 100 % of Control at 0 Time, the “IP-10 mRNA, % of Control at 0 Time (±15%)” value (“IP-10 mRNA, % of Control” below) ([1]; 1 hr) was 100 % of Control at 0 Time and the “MHC Class I mRNA, % of Control at 0 Time (±15%)” value (“MHC Class I mRNA, % of Control” below) ([1]; 1 hr) was 100 % of Control at 0 Time. For the same compound, the “PKR mRNA, % of Control at 0 Time (±15%)” value ([1]; 1 hr) was 100 % of Control at 0 Time, the “TLR3 mRNA, % of Control at 0 Time (±15%)” value ([1]; 1 hr) was 100 % of Control at 0 Time and the “GAPDH mRNA, % of Control” value ([1]; 3 hr) was 100 % of Control at 0 Time. For the same compound, the “IP-10 mRNA, % of Control” value ([1]; 3 hr) was 100 % of Control at 0 Time, the “MHC Class I mRNA, % of Control” value ([1]; 3 hr) was 100 % of Control at 0 Time and the “PKR mRNA, % of Control at 0 Time (±15%)” value ([1]; 3 hr) was 100 % of Control at 0 Time. The “TLR3 mRNA, % of Control at 0 Time (±15%)” value ([1]; 3 hr) was 100 % of Control at 0 Time, the “GAPDH mRNA, % of Control” value ([1]; 6 hr) was 100 % of Control at 0 Time and the “IP-10 mRNA, % of Control” value ([1]; 6 hr) was 100 % of Control at 0 Time. For the same compound, the “MHC Class I mRNA, % of Control” value ([1]; 6 hr) was 100 % of Control at 0 Time, the “PKR mRNA, % of Control at 0 Time (±15%)” value ([1]; 6 hr) was 100 % of Control at 0 Time and the “TLR3 mRNA, % of Control at 0 Time (±15%)” value ([1]; 6 hr) was 100 % of Control at 0 Time. The “GAPDH mRNA, % of Control” value ([1]; 12 hr) was 100 % of Control at 0 Time, the “IP-10 mRNA, % of Control” value ([1]; 12 hr) was 100 % of Control at 0 Time and the “MHC Class I mRNA, % of Control” value ([1]; 12 hr) was 100 % of Control at 0 Time. For the same compound, the “PKR mRNA, % of Control at 0 Time (±15%)” value ([1]; 12 hr) was 100 % of Control at 0 Time and the “TLR3 mRNA, % of Control at 0 Time (±15%)” value ([1]; 12 hr) was 100 % of Control at 0 Time.
With “IL-1β: cytokine used as positive control” the “increase of ELK1 transactivation” value (ERK1/2 MAPK, ELK1) was 2 fold.
With Poly (I:C) [reference compound] the “increase of NF-κB mediated luciferase activity” value (NF-κB) was 6 fold and the “increase of ELK1 transactivation” value (ERK1/2 MAPK, ELK1) was 2 fold.
